Reference: the NIST ThermoML archive (doi:10.1016/j.tca.2004.12.009)
Numbers after ± are expanded uncertainties.

Key:
[1] = DTA
[2] = Molar enthalpy of transition or fusion; settings: DSC

Normal melting temperature ([1]; Crystal 1): 170.60 ± 0.6 °C
Normal melting temperature ([1]; Metastable crystal): 162.90 ± 0.9 °C
Molar enthalpy of transition or fusion ([2]; Crystal 1): 13.2 ± 0.43 kcal/mol
Molar enthalpy of transition or fusion ([2]; Metastable crystal): 12.2 ± 0.813 kcal/mol
Structure (SMILES): NC(N)=Nc1nc(CSCC/C(N)=N/S(N)(=O)=O)cs1 [famotidine]
